Source: PubChem BioAssay (NCI)
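Five concentrations, 48 hours, 96-well plates. The concentration for 50% growth inhibition is given as GI50. TGI: total growth inhibition.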

Experiments:
Assay in all cases: NCI anticancer screen, dose series, 48 h
SN12C renal = system: SN12C renal
HT29 colon = system: HT29 colon
MCF7 breast = system: MCF7 breast
LOX IMVI melanoma = system: LOX IMVI melanoma
EKVX NSCLC = system: EKVX NSCLC
SK-MEL-2 melanoma = system: SK-MEL-2 melanoma
K-562 leukemia = system: K-562 leukemia
HOP-92 NSCLC = system: HOP-92 NSCLC
SNB-75 CNS = system: SNB-75 CNS
OVCAR-3 ovarian = system: OVCAR-3 ovarian
NCI-H23 lung = system: NCI-H23 lung
U251 CNS = system: U251 CNS
NCI/ADR-RES ovarian = system: NCI/ADR-RES ovarian
DU-145 prostate = system: DU-145 prostate
UACC-62 melanoma = system: UACC-62 melanoma
CAKI-1 renal = system: CAKI-1 renal
NCI-H522 lung = system: NCI-H522 lung
SF-268 CNS = system: SF-268 CNS
OVCAR-4 ovarian = system: OVCAR-4 ovarian
SF-295 CNS = system: SF-295 CNS
RPMI-8226 leukemia = system: RPMI-8226 leukemia
ACHN renal = system: ACHN renal
MOLT-4 leukemia = system: MOLT-4 leukemia
MDA-MB-435 = system: MDA-MB-435
IGROV1 ovarian = system: IGROV1 ovarian
A498 renal = system: A498 renal
SK-MEL-28 melanoma = system: SK-MEL-28 melanoma
HCT-116 colon = system: HCT-116 colon
HL-60(TB) leukemia = system: HL-60(TB) leukemia
MALME-3M melanoma = system: MALME-3M melanoma
MDA-MB-231 breast = system: MDA-MB-231 breast
T-47D breast = system: T-47D breast
HCC-2998 colon = system: HCC-2998 colon
NCI-H460 lung = system: NCI-H460 lung
A549 NSCLC = system: A549 NSCLC
HS 578T breast = system: HS 578T breast
SW-620 colon = system: SW-620 colon
COLO 205 colon = system: COLO 205 colon
RXF 393 renal = system: RXF 393 renal
TK-10 renal = system: TK-10 renal
OVCAR-5 ovarian = system: OVCAR-5 ovarian
KM12 colon = system: KM12 colon
UACC-257 melanoma = system: UACC-257 melanoma
CCRF-CEM leukemia = system: CCRF-CEM leukemia
SR leukemia = system: SR leukemia
UO-31 renal = system: UO-31 renal
SK-MEL-5 melanoma = system: SK-MEL-5 melanoma
SF-539 CNS = system: SF-539 CNS
PC-3 prostate = system: PC-3 prostate
HCT-15 colon = system: HCT-15 colon
SNB-19 CNS = system: SNB-19 CNS
M14 melanoma = system: M14 melanoma
NCI-H226 lung = system: NCI-H226 lung
HOP-62 NSCLC = system: HOP-62 NSCLC

Molecule O=C(Nc1ccc(-n2ccc3c(NC(=O)c4ccccc4)ncnc32)cc1)Nc1ccc(Cl)c(C(F)(F)F)c1 has a GI50 (SN12C renal) of 2.43 µM, a TGI (SN12C renal) of 6.58 µM and a GI50 (HT29 colon) of 1.52 µM. For the same molecule, the TGI (HT29 colon) was 3.14 µM, the GI50 (MCF7 breast) was 1.64 µM and the TGI (MCF7 breast) was 3.24 µM. The GI50 (LOX IMVI melanoma) was 2 µM, the TGI (LOX IMVI melanoma) was 6.77 µM and the GI50 (EKVX NSCLC) was 1.97 µM. For the same molecule, the TGI (EKVX NSCLC) was 4.99 µM, the GI50 (SK-MEL-2 melanoma) was 2.44 µM and the TGI (SK-MEL-2 melanoma) was 5.66 µM. For the same molecule, the GI50 (K-562 leukemia) was 1.45 µM, the TGI (K-562 leukemia) was 5.04 µM and the GI50 (HOP-92 NSCLC) was 1.41 µM. It also gave a TGI (HOP-92 NSCLC) of 4 µM, a GI50 (SNB-75 CNS) of 1.67 µM and a TGI (SNB-75 CNS) of 8.08 µM. It also gave a GI50 (OVCAR-3 ovarian) of 1.72 µM, a TGI (OVCAR-3 ovarian) of 3.22 µM and a GI50 (NCI-H23 lung) of 2.19 µM. It also gave a TGI (NCI-H23 lung) of 5.28 µM, a GI50 (U251 CNS) of 1.2 µM and a TGI (U251 CNS) of 2.55 µM. The GI50 (NCI/ADR-RES ovarian) was 2.41 µM, the TGI (NCI/ADR-RES ovarian) was 8.55 µM and the GI50 (DU-145 prostate) was 2.12 µM. For the same molecule, the TGI (DU-145 prostate) was 4.61 µM, the GI50 (UACC-62 melanoma) was 1.9 µM and the TGI (UACC-62 melanoma) was 4.59 µM. The GI50 (CAKI-1 renal) was 1.69 µM, the TGI (CAKI-1 renal) was 3.81 µM and the GI50 (NCI-H522 lung) was 1.07 µM. It also gave a TGI (NCI-H522 lung) of 2.89 µM, a GI50 (SF-268 CNS) of 2.02 µM and a TGI (SF-268 CNS) of 4.99 µM. It also gave a GI50 (OVCAR-4 ovarian) of 1.57 µM, a TGI (OVCAR-4 ovarian) of 3.48 µM and a GI50 (SF-295 CNS) of 1.41 µM. For the same molecule, the TGI (SF-295 CNS) was 3.38 µM, the GI50 (RPMI-8226 leukemia) was 1.03 µM and the TGI (RPMI-8226 leukemia) was 2.84 µM. For the same molecule, the GI50 (ACHN renal) was 1.58 µM, the TGI (ACHN renal) was 3.62 µM and the GI50 (MOLT-4 leukemia) was 1.87 µM. The TGI (MOLT-4 leukemia) was 4.82 µM, the GI50 (MDA-MB-435) was 1.85 µM and the TGI (MDA-MB-435) was 4.43 µM. It also gave a GI50 (IGROV1 ovarian) of 1.77 µM, a TGI (IGROV1 ovarian) of 3.91 µM and a GI50 (A498 renal) of 1.51 µM. It also gave a TGI (A498 renal) of 3.65 µM, a GI50 (SK-MEL-28 melanoma) of 1.93 µM and a TGI (SK-MEL-28 melanoma) of 4.46 µM. The GI50 (HCT-116 colon) was 1.47 µM, the TGI (HCT-116 colon) was 2.96 µM and the GI50 (HL-60(TB) leukemia) was 2.92 µM. The TGI (HL-60(TB) leukemia) was 6.93 µM, the GI50 (MALME-3M melanoma) was 1.94 µM and the TGI (MALME-3M melanoma) was 4.54 µM. The GI50 (MDA-MB-231 breast) was 1.55 µM, the TGI (MDA-MB-231 breast) was 3.66 µM and the GI50 (T-47D breast) was 2.27 µM. It also gave a TGI (T-47D breast) of 5.73 µM, a GI50 (HCC-2998 colon) of 2.47 µM and a TGI (HCC-2998 colon) of 6.54 µM. It also gave a GI50 (NCI-H460 lung) of 1.35 µM, a TGI (NCI-H460 lung) of 3.06 µM and a GI50 (A549 NSCLC) of 1.67 µM. For the same molecule, the TGI (A549 NSCLC) was 3.58 µM, the GI50 (HS 578T breast) was 1.27 µM and the TGI (HS 578T breast) was 4.61 µM. For the same molecule, the GI50 (SW-620 colon) was 2.17 µM, the TGI (SW-620 colon) was 4.96 µM and the GI50 (COLO 205 colon) was 2.63 µM. It also gave a TGI (COLO 205 colon) of 5.86 µM, a GI50 (RXF 393 renal) of 1.5 µM and a TGI (RXF 393 renal) of 3.28 µM. For the same molecule, the GI50 (TK-10 renal) was 1.8 µM, the TGI (TK-10 renal) was 4.95 µM and the GI50 (OVCAR-5 ovarian) was 1.66 µM. The TGI (OVCAR-5 ovarian) was 3.89 µM, the GI50 (KM12 colon) was 1.62 µM and the TGI (KM12 colon) was 3.79 µM. The GI50 (UACC-257 melanoma) was 2.76 µM, the TGI (UACC-257 melanoma) was 6.39 µM and the GI50 (CCRF-CEM leukemia) was 0.806 µM. The TGI (CCRF-CEM leukemia) was 3.73 µM, the GI50 (SR leukemia) was 1.74 µM and the TGI (SR leukemia) was 4.76 µM. The GI50 (UO-31 renal) was 2.04 µM, the TGI (UO-31 renal) was 4.73 µM and the GI50 (SK-MEL-5 melanoma) was 2.43 µM. For the same molecule, the TGI (SK-MEL-5 melanoma) was 11.3 µM, the GI50 (SF-539 CNS) was 0.654 µM and the TGI (SF-539 CNS) was 3.9 µM. The GI50 (PC-3 prostate) was 1.25 µM, the TGI (PC-3 prostate) was 3.01 µM and the GI50 (HCT-15 colon) was 0.765 µM. It also gave a TGI (HCT-15 colon) of 2.19 µM, a GI50 (SNB-19 CNS) of 2.43 µM and a TGI (SNB-19 CNS) of 7.18 µM. The GI50 (M14 melanoma) was 1.66 µM, the TGI (M14 melanoma) was 3.64 µM and the GI50 (NCI-H226 lung) was 2.39 µM. For the same molecule, the TGI (NCI-H226 lung) was 7.06 µM, the GI50 (HOP-62 NSCLC) was 2.16 µM and the TGI (HOP-62 NSCLC) was 4.45 µM.
